Assay results taken from ChEMBL document CHEMBL1275247, “Pharmacokinetics and safety of CXA-101, a new antipseudomonal cephalosporin, in healthy adult male and female subjects receiving single- and multiple-dose intravenous infusions” (Antimicrob Agents Chemother, 2010).

Tests used:
[1] = Tmax in healthy human at 500 mg, iv administered as 1 hr infusion every 8 hrs for 10 days measured on day 10; assay type: ADME, organism-based; conditions: in vivo
[2] = Cmax in healthy human at 1500 mg, iv administered as 1 hr infusion every 12 hrs for 10 days measured on day 1; assay type: ADME, organism-based; parameters: dose 1500 mg, route intravenous; conditions: in vivo
[3] = Renal clearance in healthy human at 1000 mg, iv administered as single dose as 1 hr iv infusion; assay type: ADME, organism-based, Kidney; conditions: in vivo, read-out: CL_renal
[4] = Mean residence time in healthy human at 500 mg, iv administered as 1 hr infusion every 8 hrs for 10 days measured on day 1; assay type: ADME, organism-based; conditions: in vivo
[5] = Half-life in plasma of healthy human 250 mg administered as single ascending dose, iv for 1 hr infusion; assay type: ADME, organism-based
[6] = AUC (0 to infinity) in healthy human at 1500 mg, iv administered as 1 hr infusion every 12 hrs for 10 days measured on day 10; assay type: ADME, organism-based; parameters: dose 1500 mg, route intravenous, time infinity; conditions: plasma
[7] = Renal clearance in healthy human at 1000 mg, iv administered as 1 hr infusion every 8 hrs for 10 days measured on day 1; assay type: ADME, organism-based, Kidney; conditions: in vivo, read-out: CL_renal
[8] = Volume of distribution at steady state in healthy human at 2000 mg, iv administered as single dose as 1 hr iv infusion; assay type: ADME, organism-based; conditions: in vivo
[9] = AUC (0 to infinity) in healthy human at 1000 mg, iv administered as single dose as 1 hr iv infusion; assay type: ADME, organism-based; parameters: dose 1000 mg, route intravenous, time infinity; conditions: plasma
[10] = Volume of distribution at steady state in healthy human at 1500 mg, iv administered as 1 hr infusion every 12 hrs for 10 days measured on day 10; assay type: ADME, organism-based; conditions: in vivo
[11] = Drug recovery in urine of healthy human at 1500 mg, iv administered as 1 hr infusion every 12 hrs for 10 days measured on day 10; assay type: ADME, organism-based; conditions: read-out: Activity
[12] = Clearance in healthy human at 500 mg, iv administered as 1 hr infusion every 8 hrs for 10 days measured on day 10; assay type: ADME, organism-based; conditions: in vivo
[13] = Mean residence time in healthy human at 500 mg, iv administered as single dose as 1 hr iv infusion; assay type: ADME, organism-based; conditions: in vivo
[14] = Cmax in healthy human at 250 mg, iv administered as single dose as 1 hr iv infusion; assay type: ADME, organism-based; parameters: dose 250 mg, route intravenous; conditions: in vivo
Homo sapiens [15] = experiment: Toxicity in healthy human assessed as occurrence of abdominal pain at 1000 mg, iv administered as single dose as 1 hr iv infusion; assay type: organism-based, Abdomen; conditions: in vivo
[16] = Half-life in plasma of healthy human 500 mg administered as single ascending dose, iv for 1 hr infusion; assay type: ADME, organism-based
[17] = Mean residence time in healthy human at 1500 mg, iv administered as 1 hr infusion every 12 hrs for 10 days measured on day 10; assay type: ADME, organism-based; conditions: in vivo
[18] = Drug recovery in urine of healthy human at 250 mg, iv administered as single dose as 1 hr iv infusion after 24 hrs; assay type: ADME, organism-based; conditions: read-out: Activity
[19] = Renal clearance in healthy human at 500 mg, iv administered as single dose as 1 hr iv infusion; assay type: ADME, organism-based, Kidney; conditions: in vivo, read-out: CL_renal
[20] = AUC (0 to infinity) in healthy human at 1000 mg, iv administered as 1 hr infusion every 8 hrs for 10 days measured on day 10; assay type: ADME, organism-based; parameters: dose 1000 mg, time infinity, route intravenous; conditions: plasma
Homo sapiens [21] = experiment: Toxicity in healthy human assessed as occurrence of paraesthesia at 500 mg, iv administered as 1 hr infusion every 8 hrs for 10 days; assay type: organism-based; conditions: in vivo
[22] = Cmax in healthy human at 1000 mg, iv administered as 1 hr infusion every 8 hrs for 10 days measured on day 1; assay type: ADME, organism-based; parameters: dose 1000 mg, route intravenous; conditions: in vivo
[23] = AUC (0 to infinity) in healthy human at 500 mg, iv administered as 1 hr infusion every 8 hrs for 10 days measured on day 10; assay type: ADME, organism-based; parameters: dose 500 mg, time infinity, route intravenous; conditions: plasma
[24] = Cmax in healthy human at 1500 mg, iv administered as 1 hr infusion every 12 hrs for 10 days measured on day 10; assay type: ADME, organism-based; parameters: dose 1500 mg, route intravenous; conditions: in vivo
[25] = Volume of distribution at steady state in healthy human at 1000 mg, iv administered as 1 hr infusion every 8 hrs for 10 days measured on day 1; assay type: ADME, organism-based; conditions: in vivo
[26] = Drug recovery in urine of healthy human at 500 mg, iv administered as 1 hr infusion every 8 hrs for 10 days measured on day 10; assay type: ADME, organism-based; conditions: read-out: Activity
[27] = Mean residence time in healthy human at 1000 mg, iv administered as 1 hr infusion every 8 hrs for 10 days measured on day 1; assay type: ADME, organism-based; conditions: in vivo
[28] = Cmax in healthy human at 2000 mg, iv administered as single dose as 1 hr iv infusion; assay type: ADME, organism-based; parameters: dose 2000 mg, route intravenous; conditions: in vivo
[29] = Tmax in healthy human at 500 mg, iv administered as 1 hr infusion every 8 hrs for 10 days measured on day 1; assay type: ADME, organism-based; conditions: in vivo
[30] = Drug recovery in urine of healthy human at 500 mg, iv administered as 1 hr infusion every 8 hrs for 10 days measured on day 1; assay type: ADME, organism-based; conditions: read-out: Activity
[31] = Clearance in healthy human at 500 mg, iv administered as single dose as 1 hr iv infusion; assay type: ADME, organism-based; conditions: in vivo
[32] = Clearance in healthy human at 1000 mg, iv administered as 1 hr infusion every 8 hrs for 10 days measured on day 1; assay type: ADME, organism-based; conditions: in vivo
[33] = Half-life in plasma of healthy human 1500 mg, iv administered as 1 hr infusion every 12 hrs for 10 days measured on day 10; assay type: ADME, organism-based
[34] = Renal clearance in healthy human at 1500 mg, iv administered as 1 hr infusion every 12 hrs for 10 days measured on day 10; assay type: ADME, organism-based, Kidney; conditions: in vivo, read-out: CL_renal
[35] = Drug recovery in urine of healthy human at 2000 mg, iv administered as single dose as 1 hr iv infusion after 24 hrs; assay type: ADME, organism-based; conditions: read-out: Activity
[36] = Drug recovery in urine of healthy human at 1500 mg, iv administered as 1 hr infusion every 12 hrs for 10 days measured on day 1; assay type: ADME, organism-based; conditions: read-out: Activity
[37] = Mean residence time in healthy human at 250 mg, iv administered as single dose as 1 hr iv infusion; assay type: ADME, organism-based; conditions: in vivo
[38] = Volume of distribution at steady state in healthy human at 1000 mg, iv administered as single dose as 1 hr iv infusion; assay type: ADME, organism-based; conditions: in vivo
[39] = Half-life in plasma of healthy human 500 mg, iv administered as 1 hr infusion every 8 hrs for 10 days measured on day 10; assay type: ADME, organism-based
Homo sapiens [40] = experiment: Toxicity in healthy human assessed as occurrence of headache at 1500 mg, iv administered as single dose as 1 hr iv infusion; assay type: organism-based; conditions: in vivo
[41] = Tmax in healthy human at 1000 mg, iv administered as 1 hr infusion every 8 hrs for 10 days measured on day 10; assay type: ADME, organism-based; conditions: in vivo
[42] = Drug recovery in urine of healthy human at 1000 mg, iv administered as single dose as 1 hr iv infusion after 24 hrs; assay type: ADME, organism-based; conditions: read-out: Activity
[43] = AUC (0 to infinity) in healthy human at 250 mg, iv administered as single dose as 1 hr iv infusion; assay type: ADME, organism-based; parameters: dose 250 mg, route intravenous, time infinity; conditions: plasma
[44] = Cmax in healthy human at 1000 mg, iv administered as single dose as 1 hr iv infusion; assay type: ADME, organism-based; parameters: dose 1000 mg, route intravenous; conditions: in vivo
[45] = Drug recovery in urine of healthy human at 500 mg, iv administered as single dose as 1 hr iv infusion after 24 hrs; assay type: ADME, organism-based; conditions: read-out: Activity

Tmax [1]: 0.93 h
Cmax [2]: 85.4 µg/mL
CL renal at 1 h [3]: 93.4 mL/min
MRT [4]: 2.42 h
half-life [5]: 1.86 h
AUC(0-inf) [6]: 207 µg·h/mL
CL renal [7]: 112 mL/min
Vd [8]: 14.8 L
AUC(0-inf) [9]: 152 µg·h/mL
Vd [10]: 18.1 L
dose excreted at 10 day [11]: 105%
clearance [12]: 101 mL/min
MRT [13]: 2.5 h
Cmax [14]: 16.5 µg/mL
half-life [16]: 2.34 h
MRT [17]: 2.5 h
dose excreted at 24 h [18]: 97.1%
CL renal at 1 h [19]: 90.4 mL/min
AUC(0-inf) [20]: 143 µg·h/mL
Cmax [22]: 52.8 µg/mL
AUC(0-inf) [23]: 82.9 µg·h/mL
Cmax [24]: 82.6 µg/mL
Vd [25]: 17.8 L
dose excreted at 10 day [26]: 84.6%
MRT [27]: 2.64 h
Cmax [28]: 128 µg/mL
Tmax [29]: 1.03 h
dose excreted at 1 day [30]: 82.9%
clearance [31]: 99.1 mL/min
clearance [32]: 112 mL/min
half-life [33]: 2.34 h
CL renal [34]: 127 mL/min
dose excreted at 24 h [35]: 97.7%
dose excreted at 1 day [36]: 104%
MRT [37]: 2.09 h
Vd [38]: 16.3 L
half-life [39]: 2.2 h
Tmax [41]: 1.05 h
dose excreted at 24 h [42]: 85.2%
AUC(0-inf) [43]: 40.1 µg·h/mL
Cmax [44]: 58.4 µg/mL
dose excreted at 24 h [45]: 91.2%
Structure (SMILES): Cn1c(N)c(NC(=O)NCCN)c[n+]1CC1=C(C(=O)O)N2C(=O)[C@@H](NC(=O)/C(=N\OC(C)(C)C(=O)[O-])c3nsc(N)n3)[C@H]2SC1 [CEFTOLOZANE]
Activity (Homo sapiens [15]): Non-toxic
Activity (Homo sapiens [21]): Non-toxic
Activity (Homo sapiens [40]): Non-toxic
